According to patent US6737383B1, “Herbicidal oxadiazolidines” (priority 1999, dated 2004):

How the values were obtained:
[1] = test system: blackgrass; experiment: Test B pre/postemergence blackgrass; type: in vivo, Alopecurus myosuroides
Outline: (§1)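 Herbicidal effect was estimated by eye on a ten-point control scale after plants spent twelve to sixteen days in a greenhouse following soil or foliar treatment. Foliar sprays targeted plants at one to four leaves; all doses were formulated in a non-phytotoxic solvent with surfactant.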

[2] = test system: surinam grass; experiment: Test B pre/postemergence surinam grass; type: in vivo, Brachiaria decumbens
Outline: as §1

[3] = test system: cocklebur; experiment: Test B pre/postemergence cocklebur; type: in vivo, Xanthium strumarium
Outline: as §1

[4] = test system: corn; experiment: Test B pre/postemergence corn; type: in vivo, Zea mays
Outline: as §1

[5] = test system: crabgrass; experiment: Test B pre/postemergence crabgrass; type: in vivo, Digitaria sanguinalis
Outline: as §1

[6] = test system: giant foxtail; experiment: Test B pre/postemergence giant foxtail; type: in vivo, Setaria faberii
Outline: as §1

[7] = test system: morningglory; experiment: Test B pre/postemergence morningglory; type: in vivo, Ipomoea hederacea
Outline: as §1

[8] = test system: pigweed; experiment: Test B pre/postemergence pigweed; type: in vivo, Amaranthus retroflexus
Outline: as §1

[9] = test system: rape; experiment: Test B pre/postemergence rape; type: in vivo, Brassica napus
Outline: as §1

[10] = test system: soybean; experiment: Test B pre/postemergence soybean; type: in vivo, Glycine max
Outline: as §1

[11] = test system: sugar beet; experiment: Test B pre/postemergence sugar beet; type: in vivo, Beta vulgaris
Outline: as §1

[12] = test system: velvetleaf; experiment: Test B pre/postemergence velvetleaf; type: in vivo, Abutilon theophrasti
Outline: as §1

[13] = test system: wild oat; experiment: Test B pre/postemergence wild oat; type: in vivo, Avena fatua
Outline: as §1

[14] = test system: purple nutsedge; experiment: Test B pre/postemergence purple nutsedge; type: in vivo, Cyperus rotundus
Outline: as §1

[15] = test system: smallflower flatsedge; experiment: Test B flood test smallflower flatsedge; type: in vivo, Cyperus difformis
Outline: (§2)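 Read-out is a visual response score from 0 (no effect) to 10 (complete control), assigned by comparison with untreated controls. Treatment was applied at the 2-leaf stage, and plants stayed in the greenhouse for twelve to sixteen days before scoring.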

[16] = test system: bamyardgrass; experiment: Test B flood test barnyardgrass; type: in vivo, Echinochloa crus-galli
Outline: as §2

[17] = Postemergence, Rate 62 g/ha, scale 0 to 10, 0 is no effect, 10 is complete control
[18] = Postemergence, Rate 250 g/ha, scale 0 to 10, 0 no effect, 10 complete control
[19] = Preemergence, Rate 62 g/ha, scale 0 to 10 (0 no effect, 10 complete control)
[20] = Preemergence, Rate 125 g/ha, scale 0 to 10 (0 no effect, 10 complete control)
[21] = Preemergence, Rate 250 g/ha, scale of 0 to 10 where 0 is no effect and 10 is complete control
[22] = Preemergence, Rate 500 g/ha, scale 0 (no effect) to 10 (complete control)
[23] = Rate 125 g/ha, Postemergence, scale 0 to 10, 0 no effect, 10 complete control
[24] = Rate 500 g/ha, Postemergence, scale 0 to 10, 0 no effect, 10 complete control
[25] = Rate 62 g/ha, headed Pre-emergence (flood test species), scale 0 to 10 (0 no effect, 10 complete control)
[26] = Rate 125 g/ha, Pre-emergence, flood test species, scale 0 to 10 where 0 is no effect and 10 is complete control
[27] = Rate 250 g/ha, headed Pre-emergence (flood test species), scale 0 to 10 (0 no effect, 10 complete control)
[28] = Rate 500 g/ha, headed Pre-emergence (flood test species), scale 0 to 10 (0 no effect, 10 complete control)

CCN(Cc1ccccc1)C(=O)n1oc(=O)n(-c2c(C)cccc2C)c1=O [Compound 70]
0: Blackgrass plant response rating [1, 17] | Blackgrass plant response rating [1, 18] | Blackgrass plant response rating [1, 19] | Plant response rating, Blackgrass [1, 20] | Plant response rating, Blackgrass [1, 21] | Blackgrass plant response rating [1, 22] | Blackgrass plant response rating [1, 23] | Blackgrass plant response rating [1, 24] | B. signalgrass plant response rating [2, 17] | B. signalgrass plant response rating [2, 18] | B. signalgrass plant response rating [2, 19] | Plant response rating, B. signalgrass [2, 20] | Plant response rating, B. signalgrass [2, 21] | B. signalgrass plant response rating [2, 22] | B. signalgrass plant response rating [2, 23] | B. signalgrass plant response rating ([2]; Rate 500 g/ha, Postemergence, scale of 0 to 10 where 0 is no effect and 10 is complete control) | Cocklebur plant response rating [3, 17] | Cocklebur plant response rating [3, 18] | Cocklebur plant response rating [3, 19] | Plant response rating, Cocklebur [3, 20] | Plant response rating, Cocklebur [3, 21] | Cocklebur plant response rating [3, 22] | Cocklebur plant response rating [3, 23] | Cocklebur plant response rating [3, 24] | Corn plant response rating [4, 17] | Corn plant response rating [4, 18] | Corn plant response rating [4, 19] | Plant response rating, Corn [4, 20] | Plant response rating, Corn [4, 21] | Corn plant response rating [4, 22] | Corn plant response rating [4, 23] | Corn plant response rating [4, 24] | Crabgrass plant response rating [5, 17] | Crabgrass plant response rating [5, 18] | Crabgrass plant response rating [5, 19] | Plant response rating, Crabgrass [5, 20] | Plant response rating, Crabgrass [5, 21] | Crabgrass plant response rating [5, 22] | Crabgrass plant response rating [5, 23] | Crabgrass plant response rating [5, 24] | Giant foxtail plant response rating [6, 17] | Giant foxtail plant response rating [6, 18] | Giant foxtail plant response rating [6, 19] | Plant response rating, Giant foxtail [6, 20] | Plant response rating, Giant foxtail [6, 21] | Giant foxtail plant response rating [6, 22] | Giant foxtail plant response rating [6, 23] | Giant foxtail plant response rating [6, 24] | Morningglory plant response rating [7, 17] | Morningglory plant response rating [7, 18] | Morningglory plant response rating [7, 19] | Plant response rating, Morningglory [7, 20] | Plant response rating, Morningglory [7, 21] | Morningglory plant response rating [7, 22] | Morningglory plant response rating [7, 23] | Morningglory plant response rating [7, 24] | Redroot pigweed plant response rating [8, 17] | Redroot pigweed plant response rating [8, 18] | Redroot pigweed plant response rating [8, 19] | Plant response rating, Redroot pigweed [8, 20] | Plant response rating, Redroot pigweed [8, 21] | Redroot pigweed plant response rating [8, 22] | Redroot pigweed plant response rating [8, 23] | Redroot pigweed plant response rating [8, 24] | Rape plant response rating [9, 17] | Rape plant response rating [9, 18] | Rape plant response rating [9, 19] | Plant response rating, Rape [9, 20] | Plant response rating, Rape [9, 21] | Rape plant response rating [9, 22] | Rape plant response rating [9, 23] | Rape plant response rating [9, 24] | Soybean plant response rating [10, 17] | Soybean plant response rating [10, 18] | Soybean plant response rating [10, 19] | Plant response rating, Soybean [10, 20] | Plant response rating, Soybean [10, 21] | Soybean plant response rating [10, 22] | Soybean plant response rating [10, 23] | Soybean plant response rating [10, 24] | Sugarbeets plant response rating [11, 17] | Sugarbeets plant response rating [11, 18] | Sugarbeets plant response rating [11, 19] | Plant response rating, Sugarbeets [11, 20] | Plant response rating, Sugarbeets [11, 21] | Sugarbeets plant response rating [11, 22] | Sugarbeets plant response rating [11, 23] | Sugarbeets plant response rating [11, 24] | Velvetleaf plant response rating [12, 17] | Velvetleaf plant response rating [12, 18] | Velvetleaf plant response rating [12, 19] | Plant response rating, Velvetleaf [12, 20] | Plant response rating, Velvetleaf [12, 21] | Velvetleaf plant response rating [12, 22] | Velvetleaf plant response rating [12, 23] | Velvetleaf plant response rating [12, 24] | Wild oats plant response rating [13, 17] | Wild oats plant response rating [13, 18] | Wild oats plant response rating [13, 19] | Plant response rating, Wild oats [13, 20] | Plant response rating, Wild oats [13, 21] | Wild oats plant response rating [13, 22] | Wild oats plant response rating [13, 23] | Wild oats plant response rating [13, 24] | Nutsedge plant response rating [14, 17] | Nutsedge plant response rating [14, 18] | Nutsedge plant response rating [14, 19] | Plant response rating, Nutsedge [14, 20] | Plant response rating, Nutsedge [14, 21] | Nutsedge plant response rating [14, 22] | Nutsedge plant response rating [14, 23] | Nutsedge plant response rating [14, 24] | S. Flatsedge plant response rating [15, 25] | S. Flatsedge plant response rating [15, 26] | S. Flatsedge plant response rating [15, 27] | Plant response rating, S. Flatsedge [15, 28] | Barnyardgrass plant response rating [16, 25] | Barnyardgrass plant response rating [16, 26] | Barnyardgrass plant response rating [16, 27] | Plant response rating, Barnyardgrass [16, 28]
